Source: patent publication US9346829B2, “5-HT3 receptor antagonists” (Takeda Phamaceutical Company Limited, priority 2012, dated 2016)
Structures can show the parent of a compound that is named as a salt. Where two headings read alike, the source gives them in different places.

Columns and labels:
nicotinic α-7 receptor = nicotinic α-7 receptor (Homo sapiens (Human), UniProt P36544); test: Nicotinic α-7 receptor binding assay; settings: binding at the nicotinic α-7 receptor, carried out at Eurofins Pharma Services
nicotinic α-7 receptor, sequence (P36544 23-502): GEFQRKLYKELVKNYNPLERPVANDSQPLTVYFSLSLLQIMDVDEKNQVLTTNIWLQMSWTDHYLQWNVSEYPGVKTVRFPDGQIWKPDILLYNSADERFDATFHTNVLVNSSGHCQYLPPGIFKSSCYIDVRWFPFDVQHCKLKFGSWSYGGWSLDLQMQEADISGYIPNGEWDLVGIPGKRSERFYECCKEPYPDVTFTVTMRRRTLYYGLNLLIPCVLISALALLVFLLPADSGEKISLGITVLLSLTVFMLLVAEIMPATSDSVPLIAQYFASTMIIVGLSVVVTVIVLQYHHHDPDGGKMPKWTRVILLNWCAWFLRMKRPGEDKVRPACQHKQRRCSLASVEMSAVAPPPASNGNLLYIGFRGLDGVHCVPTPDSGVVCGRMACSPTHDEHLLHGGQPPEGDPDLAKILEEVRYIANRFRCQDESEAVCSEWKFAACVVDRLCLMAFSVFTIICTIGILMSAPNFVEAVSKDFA
Protocol: The evaluation of binding at the nicotinic α-7 receptor was carried out at Eurofins Pharma Services.

5-HT3a receptor = 5-HT3a receptor (Homo sapiens (Human), UniProt P46098); test: Inhibition of Ca flux activity of 5-HT3 in vitro assay; type: cell-based
5-HT3a receptor, sequence (P46098 24-478): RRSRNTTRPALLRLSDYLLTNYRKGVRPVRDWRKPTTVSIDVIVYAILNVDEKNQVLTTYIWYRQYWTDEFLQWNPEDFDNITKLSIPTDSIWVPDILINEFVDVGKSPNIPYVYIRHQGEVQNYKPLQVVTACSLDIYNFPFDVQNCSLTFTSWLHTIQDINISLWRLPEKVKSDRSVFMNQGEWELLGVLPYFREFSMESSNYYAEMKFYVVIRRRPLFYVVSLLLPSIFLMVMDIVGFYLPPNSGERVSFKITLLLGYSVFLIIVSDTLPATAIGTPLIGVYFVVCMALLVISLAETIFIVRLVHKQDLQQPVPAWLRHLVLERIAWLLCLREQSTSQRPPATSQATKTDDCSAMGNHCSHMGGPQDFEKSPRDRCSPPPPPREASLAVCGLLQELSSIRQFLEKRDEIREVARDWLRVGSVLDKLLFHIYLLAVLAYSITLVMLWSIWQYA
Protocol: The 5-HT3 antagonist activity of the compounds of the invention was determined by measuring the ability of the compounds to inhibit the calcium flux activity of […] receptor expressed in HEK-293T cells. HEK-293T cells were transfected with the 5-HT3a expression construct using Xtreme Gene 9 (Roche) in 150 mm tissue culture treated plates and incubated for 24 hours at 37° C. Cells were then split and plated at a density of 60K cells/well in poly-lysine coated, black 96-well plates with clear bottoms (BD BioSciences) and incubated overnight at 37° C. Growth media was removed and cells loaded with 200 uL calcium indicator dye in HBSS containing 20 mM HEPES (Calcium 5 Assay kit, Molecular Devices) and incubated at 37° C. for 1 hour. While cells were incubating, the 10× antagonist and agonist/antagonist addition plates were made. For 10× antagonist plate: half log serial dilutions (final concentrations range from 10^−7 through 10^−10 with the bottom well a negative, no ligand control) were made from test compounds in DMSO at a 1000× concentration and then diluted to 10× in HBSS/20 mM HEPES. For addition plate: 5HT was diluted to 100× in HBSS/20 mM HEPES (final concentration in the assay—216 nM) and 15 uL was added to each well of the addition plate, 15 uL of 10× compound was also added to the addition plate, and finally 120 uL of HBSS/20 mM HEPES (for a total of 150 uL). Cells were then removed from the incubator and equilibrated to room temperature for 10 minutes, then 22.5 uL of 10× test compounds were added in triplicate to the plates and incubated at room temperature for 10 minutes (Tropisetron was used as a positive control in every assay). Test plate and addition plate were loaded into the FlexStation III (Molecular Devices), and using the fluidics, 22.5 uL compound additions were made (at t=˜17 seconds), and fluorescence was measured for 90 seconds, reading every 2.2 seconds. Data sets were analyzed as max minus min using Software Max Pro (Molecular Devices). IC50 curves were generated using non-linear regression in GraphPad Prism.

[1] = approximate IC50, calcium flux, 5-HT3a expressed in HEK-293T cells, 5HT 216 nM, read-out: IC50

Compound	IC50 (nicotinic α-7 receptor)	IC50 (5-HT3a receptor)	IC50 (5-HT3a receptor; [1])
CN1[C@@H]2COC[C@H]1C[C@@H](NC(=O)c1cn(-c3cnn(C)c3)c3ccccc13)C2 [Compound 15, 1-(1-methyl-1H-pyrazol-4-yl)-N-((1R,5S,7S)-9-methyl-3-oxa-9-azabicyclo[3.3.1]nonan-7-yl)-1H-indole-3-carboxamide, 2,2,2-trifluoroacetic acid salt]	> 10000 nM	3.48 nM	0.662 nM
CN1C2COCC1CC(OC(=O)c1c[nH]c3ccccc13)C2 [Reference 7, (1R,5S,7S)-9-methyl-3-oxa-9-azabicyclo[3.3.1]nonan-7-yl 1H-indole-3-carboxylate, reference compound]	1660 nM	89.1 nM	–
CN1[C@@H]2COC[C@H]1C[C@@H](NC(=O)c1cn(-c3ccn(C)n3)c3ccccc13)C2 [Compound 17, 1-(1-methyl-1H-pyrazol-3-yl)-N-((1R,5S,7S)-9-methyl-3-oxa-9-azabicyclo [3.3.1]nonan-7-yl)-1H-indole-3-carboxamide, 2,2,2-trifluoroacetic acid salt]	–	–	0.75 nM
CN1[C@@H]2COC[C@H]1C[C@@H](NC(=O)c1cn(-c3ccccn3)c3ccccc13)C2 [Compound 3, N-((1R,5S,7S)-9-methyl-3-oxa-9-azabicyclo[3.3.1]nonan-7-yl)-1-(pyridin-2-yl)-1H-indole-3-carboxamide, 2,2,2-trifluoroacetate]	–	–	0.96 nM
